Measured values published in article PMC7781899, “Synthesis of some quinazolinones inspired from the natural alkaloid L-norephedrine as EGFR inhibitors and radiosensitizers” (Journal of Enzyme Inhibition and Medicinal Chemistry, 2020).

How the values were obtained:
MDA-MB-231 [1] = experiment: MTT cytotoxicity assay, MDA-MB-231; format: cell-based, human; settings: for IC50: Homo sapiens, MDA-MB-231, MTT assay, mean of three experiments ± SE, read-out: IC50 MDA-MB-231
Description: (§1) The 96-well plate was incubated for 24 h before the MTT assay. […] Cells were cultured using DMEM supplemented with 10% foetal bovine serum, 10 µg/mL insulin and 1% penicillin–streptomycin. Reconstituted MTT (10%) was added and incubated for 2 h. Formazan crystals were dissolved by the MTT solubilizing solution after incubation. Absorbance was measured at a wavelength of 570 nm[28].

MCF-7 [2] = experiment: MTT cytotoxicity assay, MCF-7; format: cell-based, human; settings: for IC50: Homo sapiens, MCF7, MTT assay, mean of three experiments ± SE, read-out: IC50 MCF-7
Description: as §1

HCT-116 [3] = experiment: MTT cytotoxicity assay, HCT-116; format: cell-based, human; settings: for IC50: Homo sapiens, HCT-116, MTT assay, mean of three experiments ± SE, read-out: IC50 HCT-116
Description: as §1

HepG-2 [4] = experiment: MTT cytotoxicity assay, HepG-2; format: cell-based, human; settings: for IC50: Homo sapiens, HepG2, MTT assay, mean of three experiments ± SE, read-out: IC50 HepG-2
Description: as §1

EGFR = target: T1, EGFR (Homo sapiens, UniProt P00533); experiment: EGFR kinase assay; format: biochemical; settings: EGFR-TK inhibitory assay; means ± SE, three repeats
T1 construct: purchased Invitrogen
T1 sequence (P00533 25-1210): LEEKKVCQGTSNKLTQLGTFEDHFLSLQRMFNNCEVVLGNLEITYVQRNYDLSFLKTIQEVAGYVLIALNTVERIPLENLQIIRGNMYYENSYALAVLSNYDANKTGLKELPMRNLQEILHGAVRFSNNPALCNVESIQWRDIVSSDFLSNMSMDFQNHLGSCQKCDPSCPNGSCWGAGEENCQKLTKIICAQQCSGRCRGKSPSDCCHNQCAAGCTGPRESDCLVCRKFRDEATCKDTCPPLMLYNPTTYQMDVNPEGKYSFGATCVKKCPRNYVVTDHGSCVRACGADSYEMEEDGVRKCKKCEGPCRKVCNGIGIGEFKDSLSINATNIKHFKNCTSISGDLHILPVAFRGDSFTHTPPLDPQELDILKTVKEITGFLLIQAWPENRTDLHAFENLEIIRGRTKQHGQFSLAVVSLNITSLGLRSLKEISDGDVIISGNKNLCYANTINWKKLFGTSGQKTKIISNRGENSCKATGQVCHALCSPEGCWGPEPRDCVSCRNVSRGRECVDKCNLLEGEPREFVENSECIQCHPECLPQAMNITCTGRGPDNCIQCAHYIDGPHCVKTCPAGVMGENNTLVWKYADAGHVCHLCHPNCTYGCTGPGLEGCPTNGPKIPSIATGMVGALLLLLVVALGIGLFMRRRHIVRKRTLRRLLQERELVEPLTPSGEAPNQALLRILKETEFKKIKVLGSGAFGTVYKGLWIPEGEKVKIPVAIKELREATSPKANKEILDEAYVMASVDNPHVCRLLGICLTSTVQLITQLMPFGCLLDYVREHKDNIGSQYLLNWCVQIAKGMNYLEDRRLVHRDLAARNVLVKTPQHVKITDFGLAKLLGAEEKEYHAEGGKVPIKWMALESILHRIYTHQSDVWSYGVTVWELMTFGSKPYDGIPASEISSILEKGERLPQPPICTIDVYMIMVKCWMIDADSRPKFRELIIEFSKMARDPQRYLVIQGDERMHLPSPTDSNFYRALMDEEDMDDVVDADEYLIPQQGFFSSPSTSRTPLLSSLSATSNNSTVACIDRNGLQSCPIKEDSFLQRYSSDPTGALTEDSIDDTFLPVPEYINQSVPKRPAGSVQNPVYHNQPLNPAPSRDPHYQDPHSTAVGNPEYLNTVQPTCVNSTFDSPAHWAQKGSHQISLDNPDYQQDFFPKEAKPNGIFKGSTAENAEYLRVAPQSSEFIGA
Description: An ATP solution and a kinase/peptide mixture were developed just before use. […] Then, […] of the prepared solution was added to each well. The plate was incubated for 1 h and determined by an ELISA Reader (PerkinElmer, USA). Curve fitting using Graph Pad Prism 5 was constructed. Each experiment was repeated three times. IC50 was represented as means ± SE.

[5] = test system: MCF-10A normal breast cell line; experiment: MTT cytotoxicity assay, MCF-10A normal cells; format: cell-based; settings: Homo sapiens
Description: as §1

MDA-MB-231 [6] = experiment: Radiosensitizing evaluation, MDA-MB-231; format: cell-based; settings: Homo sapiens, MDA-MB-231, light or radiation study, 48 h; single dose of 8 Gy gamma radiation; measured two days after irradiation
Description: (§2) Irradiation was performed at the National Centre for Radiation Research and Technology (NCRRT), Egyptian Atomic Energy Authority, using Gamma cell-40 (^137Cs) source. The promising compounds 5 and 6 were selected to be re-evaluated for in vitro cytotoxic activity after the cells containing the compounds were gamma-irradiated at a dose level of 8 Gy with a dose rate of 0.758 rad/s for 17.59 min. Cytotoxicity was measured two days after irradiation. The IC50 of the tested compounds is calculated using GraphPad Prism 5.

MCF-7 [7] = experiment: Radiosensitizing evaluation, MCF-7; format: cell-based; settings: Homo sapiens, MCF7, light or radiation study, 48 h; single dose of 8 Gy gamma radiation; measured two days after irradiation
Description: as §2

HCT-116 [8] = experiment: Radiosensitizing evaluation, HCT-116; format: cell-based; settings: Homo sapiens, HCT-116, light or radiation study, 48 h; single dose of 8 Gy gamma radiation; measured two days after irradiation
Description: as §2

HepG-2 [9] = experiment: Radiosensitizing evaluation, HepG-2; format: cell-based; settings: Homo sapiens, HepG2, light or radiation study, 48 h; single dose of 8 Gy gamma radiation; measured two days after irradiation
Description: as §2

MDA-MB-231 cells [10] = experiment: Cell cycle analysis by flow cytometry (PI); format: cell-based, human; settings: 0.76 μM, 24 h
Description: The MDA-MB-231 cells (10^5/well) were incubated with compound 5 at its IC50. After 24 h, the cells were washed twice with PBS, then collected and fixed with ice-cold ethanol 70% (v/v). The cells were re-suspended with 0.1 mg/mL RNase, stained with […] PI and examined using flow cytometry (FACScalibur-Becton Dickinson).

MDA-MB-231 cells [11] = experiment: Apoptotic assay, Annexin V-FITC/PI; format: cell-based, human; settings: 0.76 μM, 24 h
Description: Cells were prepared as previously mentioned. Treatment of cells (10^5) with Annexin V-FITC and propidium iodide (PI) was by apoptosis detection kit [BD Biosciences, San Jose, CA]. The binding of Annexin V-FITC and PI was examined using flow cytometry FACScalibur (BD Biosciences, San Jose, CA). CellQuest software was used for performing quadrant analysis of co-ordinate dot plots.

[12] = test system: MDA-MB-231, MCF-7, HepG-2 and HCT-116 human cancer cell lines; experiment: MTT assay, panel of cancer cell lines; format: cell-based; settings: range over MDA-MB-231, MCF-7, HepG-2, HCT-116, read-out: IC50 against all the cell lines
Description: as §1

[13] = test system: MDA-MB-231, MCF-7, HCT-116, HepG-2; experiment: Radiosensitizing evaluation, all tested cell lines; format: cell-based; settings: Homo sapiens, light or radiation study; single dose of 8 Gy gamma radiation; read-out: IC50 on all the tested cell lines after irradiation
Description: as §2

[14] = relative to MCF-10A normal cells

SMILES: CSc1nc2ccccc2c(=O)n1C(C)C(O)c1ccccc1 (stereo not shown) [Compound 5, 3-(1-Hydroxy-1-phenylpropan-2-yl)-2-(methylthio)quinazolin-4(3H)-one]
- IC50 (MDA-MB-231 [1]): 1.53 ± 0.01 µM
- Selectivity index (SI) MDA-MB-231 (MDA-MB-231 [1]; [14]): 40.42
- IC50 (MCF-7 [2]): 5.43 ± 0.14 µM
- Selectivity index (SI) MCF-7 (MCF-7 [2]; [14]): 11.39
- IC50 (HCT-116 [3]): 5.76 ± 0.11 µM
- Selectivity index (SI) HCT-116 (HCT-116 [3]; [14]): 10.74
- IC50 (HepG-2 [4]): 4.14 ± 0.03 µM
- Selectivity index (SI) HepG-2 (HepG-2 [4]; [14]): 14.93
- IC50 (EGFR): 0.76 ± 0.1 µM
- IC50 [5]: 61.9 ± 2.14 µM
- IC50 (MDA-MB-231 [6]): 0.78 ± 0.15 µM
- IC50 (MCF-7 [7]): 2.35 ± 0.18 µM
- IC50 (HCT-116 [8]): 2.28 ± 0.41 µM
- IC50 (HepG-2 [9]): 2.34 ± 0.23 µM
- % G2-M (MDA-MB-231 cells [10]): 40.39%
- % Pre-G1 (MDA-MB-231 cells [10]): 19.23%
- % S (MDA-MB-231 cells [10]): 34.84%
- %G0-G1 (MDA-MB-231 cells [10]): 24.77%
- rise of percentage of cells at pri-G1 phase over control (MDA-MB-231 cells [10]): 10 folds
- Apoptotic assay % Early (MDA-MB-231 cells [11]): 7.36%
- Apoptotic assay % Late (MDA-MB-231 cells [11]): 11.74%
- Apoptotic assay % Necrosis (MDA-MB-231 cells [11]): 3.84%
- Apoptotic assay % Total (MDA-MB-231 cells [11]): 22.94%
- apoptosis over the control (MDA-MB-231 cells [11]): more than 12 folds
- IC50 [12]: 1.53 to 5.76 µM
- IC50 [13]: < 5 µM
- melting point: 121.5 °C

SMILES: CSc1nc2ccccc2c(=O)n1N [Compound 7, 3-Amino-2-(methylthio)quinazolin-4(3H)-one]
- IC50 (MDA-MB-231 [1]): 23.48 ± 0.06 µM
- IC50 (MCF-7 [2]): 68.1 ± 1.21 µM
- IC50 (HCT-116 [3]): 59.2 ± 0.78 µM
- IC50 (HepG-2 [4]): 48.3 ± 0.93 µM
- IC50 (EGFR): 3.44 ± 0.15 µM
- melting point: 178.9 °C

SMILES: CCOc1nc2ccccc2c(=O)n1N [Compound 13, 3-amino-2-ethoxyquinazolin-4(3H)-one]
- IC50 (MDA-MB-231 [1]): 81.43 ± 0.27 µM
- IC50 (MCF-7 [2]): > 100 µM
- IC50 (HCT-116 [3]): > 100 µM
- IC50 (HepG-2 [4]): > 100 µM
- IC50 (EGFR): 8.35 ± 0.32 µM

SMILES: CC1C(c2ccccc2)Oc2nc3ccccc3c(=O)n2C(C)C(c2ccccc2)Oc2nc3ccccc3c(=O)n21 (stereo not shown) [Compound 17, 8,18-dimethyl-7,17-diphenyl-7,8,17,18-tetrahydro-[1,6,3,8]dioxadiazecino[2,3-b:7,8-b']diquinazoline-10,20-dione]
- IC50 (MDA-MB-231 [1]): 5.45 ± 0.06 µM
- IC50 (MCF-7 [2]): 20.1 ± 0.27 µM
- IC50 (HCT-116 [3]): 18.4 ± 0.2 µM
- IC50 (HepG-2 [4]): 24.3 ± 0.18 µM
- IC50 (EGFR): 1.02 ± 0.05 µM

SMILES: CC1Nn2c(nc3ccccc3c2=O)SC1c1ccccc1 (stereo not shown) [Compound 10, 3-methyl-2-phenyl-3,4-dihydro-[1,3,4]thiadiazino[2,3-b]quinazolin-6(2H)-one]
- IC50 (MDA-MB-231 [1]): 21.86 ± 0.04 µM
- IC50 (MCF-7 [2]): 37.31 ± 0.29 µM
- IC50 (HCT-116 [3]): 46.3 ± 0.63 µM
- IC50 (HepG-2 [4]): 35.6 ± 0.36 µM
- IC50 (EGFR): 3.09 ± 0.2 µM

SMILES: Nn1c(O)nc2ccccc2c1=O [Compound 12, 3-Amino-2-hydroxyquinazolin-4(3H)-one]
- IC50 (MDA-MB-231 [1]): 57.78 ± 0.43 µM
- IC50 (MCF-7 [2]): 66.3 ± 0.72 µM
- IC50 (HCT-116 [3]): 50.75 ± 0.29 µM
- IC50 (HepG-2 [4]): 20.5 ± 0.31 µM
- IC50 (EGFR): 7.39 ± 0.28 µM

SMILES: CC(Nc1nc2ccccc2c(=O)n1C(C)C(O)c1ccccc1)C(O)c1ccccc1 (stereo not shown) [Compound 18, 3-(1-hydroxy-1-phenylpropan-2-yl)-2-(1-hydroxy-1-phenylpropan-2-ylamino)quinazolin-4(3H)-one]
- IC50 (MDA-MB-231 [1]): 62.94 ± 0.1 µM
- IC50 (MCF-7 [2]): 62.59 ± 0.18 µM
- IC50 (HCT-116 [3]): 44.9 ± 0.52 µM
- IC50 (HepG-2 [4]): 50 ± 0.13 µM
- IC50 (EGFR): 0.99 ± 0.04 µM
